≈ marks a conversion by molar mass, not a printed value. Read-outs that look alike come from different tables or passages of the source.

One may read the GI50 as the concentration that inhibits growth by half. As usually defined, the IC50 is the concentration that inhibits the measured activity by half. Low readings indicate inhibition by little substance, high ones a need for much substance. As a reminder, the half-life is the time needed for the level to fall by half in the phase considered. The low end stands for fast loss, the high end for slow loss. As a reminder, the solubility is how much of the substance goes into solution per volume. One may read the LC50 as the concentration lethal to half of the exposed cells or organisms. The inhibition is the change of the read-out against control, counted positive when it falls.

The subject of one data set is Breast (MCF-7). In words: Anticancer activity in vitro (Table 3), MCF-7. Type of data set: cell-based, human. To be noted: for MCF-7 TGI: 48 h; for GI50 / IC50 / CC50: Homo sapiens, MCF7, 48 h; for CC50: read-out: MCF-7 LC50.
The nature of data set [1]: Druggability screening: protein binding rate. Type of data set: in vitro ADME.
For the next data set, the target named is Cdk1/Cyclin B (Homo sapiens, UniProt P06493). In words: Cdk1/Cyclin B inhibitory activity, Z'-LYTE Kinase Assay. It is filed as biochemical. To be noted: ATP 10 μM; 8 concentrations of 0.01-25 μM.
Data set [2] is described as follows: Druggability screening: solubility in PBS (pH7.4). It is filed as physicochemical. To be noted: pH 7.4, aqueous buffer.
Another data set concerns Prostate (PC-3). In words: Anticancer activity in vitro (Table 3), PC-3. To be noted: 48 h; for GI50 / IC50 / LC50: Homo sapiens. Type of data set: cell-based, human.
Another data set has as its system CD4+T lymphocytes. Put plainly: Differentiate growth inhibition of CD4+T lymphocytes. Type of data set: cell-based. To be noted: 48 h, induced by growth factor IL-3 and IL-5, read-out: differentiate growth inhibition rates of CD4+T lymphocytes. From the text:
These show a good prospect against AIDS, and are going to be prepared anti-AIDS drugs.

For data set [3] the following is noted: in vivo.
The subject of data set [4] is 58 kinds human tumor cell. In words: NCI growth inhibition of 58 kinds human tumor cell. Type of data set: cell-based. To be noted: 48 h, by NCI, read-out: growth inhibition rates in vitro 58 kinds human tumor cell.
A further data set relates to MCF-7. Put plainly: cells. To be noted: Homo sapiens; for CC50: MCF7, read-out: MCF-7 LC50; for GI50: MCF7, read-out: MCT-7 GI50.
The next data set has as its system gastric (BGC-823). In words: Anticancer activity in vitro (Table 3), BGC-823. Type of data set: cell-based, human. To be noted: for BGC-823 TGI: 48 h; for GI50 / IC50 / CC50: Homo sapiens, BGC-823, 48 h; for CC50: read-out: BGC-823 LC50.
The subject of data set [5] is human cervical carcinoma HeLa cell line. In words: Annexin V-PI double staining flow cytometry apoptosis, HeLa. It is filed as cell-based. To be noted: concentration equals to IC50, 48 hours. (A flow cytometer gives signals particle by particle.)
Data set [6] concerns human breast cancer MCF-7. Put plainly: Annexin V-PI double staining flow cytometry apoptosis, MCF-7. It is filed as cell-based. To be noted: MCF-7, concentration equals to IC50, 48 hours.
Data set [7] relates to human gastric cancer BGC823 cell lines. In words: MTT cancer cell growth inhibition, BGC823. Type of data set: cell-based.
Data set [8] shares this test system. Put plainly: Annexin V-PI double staining flow cytometry apoptosis, BGC823. It is filed as cell-based. To be noted: BGC823, concentration equals to IC50, 48 hours.
For data set [9], the system named is human cervical carcinoma HeLa cell line. Put plainly: MTT cancer cell growth inhibition, HeLa. It is filed as cell-based.
Data set [10] has as its system human breast cancer MCF-7. Put plainly: MTT cancer cell growth inhibition, MCF-7. It is filed as cell-based.
A short description of data set [11]: Distribution and plasma binding in rabbits (LC-DAD-MS). It is filed as in vivo. The source says:
The major metabolic process relates to the structures is illustrated in the following scheme.

Data set [12] in a line: Druggability screening: blood drug concentration and half-life. To be noted: equilibrium phase.

Sequence of Cdk1/Cyclin B (P06493 whole entry): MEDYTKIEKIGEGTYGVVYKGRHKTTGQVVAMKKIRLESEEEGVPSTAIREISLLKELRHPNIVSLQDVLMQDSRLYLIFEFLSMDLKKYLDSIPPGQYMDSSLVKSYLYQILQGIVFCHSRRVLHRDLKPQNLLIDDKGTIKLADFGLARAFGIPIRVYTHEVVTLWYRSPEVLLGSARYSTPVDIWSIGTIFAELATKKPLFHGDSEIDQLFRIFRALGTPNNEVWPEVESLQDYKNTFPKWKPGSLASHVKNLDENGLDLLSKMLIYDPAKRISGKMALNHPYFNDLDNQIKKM
Sequence of Cdk1/Cyclin B (P14635 whole entry partner): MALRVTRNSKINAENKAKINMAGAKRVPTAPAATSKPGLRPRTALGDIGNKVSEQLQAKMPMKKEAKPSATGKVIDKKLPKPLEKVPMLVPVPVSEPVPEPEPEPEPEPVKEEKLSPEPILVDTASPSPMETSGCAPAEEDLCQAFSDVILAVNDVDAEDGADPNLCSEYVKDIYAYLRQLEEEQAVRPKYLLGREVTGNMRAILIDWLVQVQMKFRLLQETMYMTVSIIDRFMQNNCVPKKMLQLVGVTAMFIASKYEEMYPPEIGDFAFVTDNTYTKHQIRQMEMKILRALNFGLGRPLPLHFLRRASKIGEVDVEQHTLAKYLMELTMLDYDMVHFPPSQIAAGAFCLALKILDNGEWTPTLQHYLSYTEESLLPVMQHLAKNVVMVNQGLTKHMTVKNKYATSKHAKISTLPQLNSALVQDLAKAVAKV

Consider `O=c1cc(-c2ccccc2)oc2c(CN3CCC(O)CC3)c(O)c(O)c(O)c12` [Hydroxypiperidin Baicalein, 5,6,7-trihydroxy-8-((4-hydroxypiperidin-1-yl)methyl)-2-phenyl-4H-chromen-4-one], for which, in the data set on Breast (MCF-7), the “MCF-7 TGI” value was determined as 16.4 µM, halving of growth (GI50) required 6 µM, the IC50 worked out at 20.1 µM and the CC50 turned out to be 31 µM. Also, the fraction unbound in data set [1] stood at 0.09. Besides, in the data set “in vivo”, the half-life is 4.23 h. Further, at Cdk1/Cyclin B, the IC50 was found to be 0.3 µM. In data set [2], this compound had a solubility of 377 µM (≈ 145 µg/mL). In the data set on Prostate (PC-3), the “PC-3 TGI” value turned out to be 16.4 µM, the GI50 came to 6 µM, half-maximal inhibition (IC50) was put at 18.1 µM and the LC50 came out at 41 µM. In the data set with CD4+T lymphocytes, the inhibition at 10 µM worked out at 46.2%. Besides, the Blood drug concentration in data set [3] was 28.7 µM. For the same compound, the inhibition at 10 µM in data set [4] worked out at 40.6%. Also, in the data set with MCF-7, the CC50 worked out at 40.1 µM and the GI50 was 10.2 µM. In the data set with gastric (BGC-823), the “BGC-823 TGI” value was 16.4 µM, the GI50 came out at 5.7 µM, the IC50 turned out to be 18.6 µM and the CC50 was 53.1 µM.

Consider `CN1CCN(Cc2c(O)c(O)c(O)c3c(=O)cc(-c4ccccc4)oc23)CC1` [Methylpiperazine Baicalein, 5,6,7-trihydroxy-8-((4-methylpiperazin-1-yl)methyl)-2-phenyl-4H-chromen-4-one], for which the early apoptosis in data set [5] is 67.3%; in data set [6], 72.3%; in data set [8] it was 69.2%. Moreover, the “late apoptosis and cellular necrosis” value in data set [5] was 27.1%; in data set [6] it was 23.1%; in [8], 22.2%. In addition, in the data set with Breast (MCF-7), the “MCF-7 TGI” value was found to be 16.4 µM. The GI50 in the data set on Breast (MCF-7) came to 6.4 µM; with Prostate (PC-3) it was 8.2 µM; with MCF-7, 10.9 µM; with gastric (BGC-823) it was 6.4 µM. Further, the IC50 in the data set with Breast (MCF-7) stood at 19.3 µM; against Cdk1/Cyclin B, 0.29 µM; in data set [7] (BGC-823, 24 h), 9.6 ± 0.21 µM; in [7] (BGC-823, 48 h), 7.2 ± 0.23 µM; in [7] (BGC-823, 72 h) it was 6.5 ± 0.19 µM; in the data set with Prostate (PC-3), 21.1 µM. The IC50 stood at 12.8 ± 0.2 µM in data set [9] (24 h); 8.2 ± 0.15 µM in [9] (48 h); 6.7 ± 0.24 µM in [9] (72 h); 13.7 ± 0.21 µM in data set [10] (MCF7, 24 h); 10.6 ± 0.17 µM in data set [10] (MCF7, 48 h); 7.4 ± 0.25 µM in data set [10] (MCF7, 72 h). In addition, half-maximal inhibition in the data set with gastric (BGC-823) (IC50) was put at 23.1 µM. Further, the CC50 in the data set on Breast (MCF-7) worked out at 31.3 µM; in the data set with MCF-7 it was 37.2 µM; with gastric (BGC-823), 62.7 µM. Moreover, the fraction unbound was 0.02 in [1] and 0.02 in [11] (rabbit, plasma, dose-independent manner, read-out: bound to plasma (converted)). Besides, the solubility in [2] is 6.02 µM (≈ 2.3 µg/mL). Moreover, the “PC-3 TGI” value in the data set on Prostate (PC-3) came to 19.8 µM. This compound also yielded an LC50 in the data set with Prostate (PC-3) of 38.8 µM. In data set [4], the inhibition at 10 µM worked out at 50%. Further, in the data set with gastric (BGC-823), the “BGC-823 TGI” value stood at 19.8 µM. In data set [11] (LC-DAD-MS), the tissue distribution result is listed as “rapidly distributed to various tissues”.

For `O=c1cc(-c2ccccc2)oc2cc(O)c(O)c(O)c12` [Baicalein, reference compound], the Blood drug concentration in data set [12] was 0.026 µM. Moreover, the half-life in the data set “in vivo” is 5.26 h. On Cdk1/Cyclin B, this compound yielded an IC50 of 2.08 µM.
